Experimental data published in publication PMC8537327, “EGFR-Targeted Pentacyclic Triterpene Analogues for Glioma Therapy” (International Journal of Molecular Sciences, 2021).

Key:
[1] = test system: U251 human glioblastoma cells; experiment: MTT cytotoxicity assay, U251 cells; format: cell-based; conditions: for IC50: Homo sapiens, U-251, MTT, 72 h; for anticancer activity against U251 cells: at 100 µM concentration
Description: (§1) U251, T98G (Japanese Collection of Research Bioresources Cell Bank), and U87 human glioblastoma cell lines were incubated in Dulbecco’s Modified Eagle Medium (DMEM)/Ham’s F12 (Wako Pure Chemical Industries, Osaka, Japan), Eagle’s Minimum Essential Medium (EMEM; Wako Pure Chemical Industries, Osaka, Japan), and DMEM (Gibco/Thermo Fisher Scientific, Waltham, MA, USA) respectively, and supplemented with 10% fetal bovine serum (FBS; Sigma Aldrich, MO, USA). Jurkat human leukemic T-cell line was cultured in Roswell Park Memorial Institute (RPMI) 1640 (Wako Pure Chemical Industries, Osaka, Japan), supplemented with 10% FBS. PBMCs (Precision Bioservices, Frederick, MD, USA) were incubated in RPMI 1640 and supplemented with 10% human serum AB (HS) (Gemini, Woodland, CA, USA). All media were supplemented with 89 μg/mL streptomycin (Meiji Seika Pharma, Tokyo, Japan) at 37 °C in a humid atmosphere and 5% CO2. For each experiment, growing cells were plated at 4 × 10^4 cells/mL and 6 × 10^5 cells/mL into 24-well and 96-well microtiter tissue culture plates (Iwaki brand Asahi Glass Co., Chiba, Japan) respectively and incubated for 72 h before the addition of the drugs (the optimal cell number for cytotoxicity assays was determined in preliminary experiments). The stock solutions of the compounds and cisplatin (Sigma-Aldrich, St. Louis, MO, USA) in concentrations between 0.1–10 mM were prepared in dimethyl sulfoxide (DMSO; Wako Pure Chemical Industries, Osaka, Japan) and in H2O respectively, then were added to fresh culture medium. The concentration of DMSO and H2O in the final culture medium was 1% which had no effect on the cell viability.
(§2) The MTT (Dojindo Molecular Technologies, Kumamoto, Japan) assay was carried out using the U251, T98G, U87, Jurkat, and PBMC cells to determine the cytotoxicity of compounds 1–13 and cisplatin as previously described in the literature with small modifications. Treated cells were incubated with different concentrations (1–100 µM) of the compounds for 72 h at 37 °C in the CO2 incubator. About 100 µL (1.1 mg/mL) of MTT solution was added to each well and after further incubation for 4 h, formazan crystals formed. At the end of this period, the medium was removed and the formazan crystals were solubilized by the addition of 100 μL DMSO to each well. The absorbance was read on an Infinite M1000 plate reader (Tecan, Mannedorf, Switzerland) at a wavelength of 550 nm with background subtraction at 630 nm. All experiments were performed in triplicate and IC50 values were defined as the drug concentrations that reduced absorbance to 50% of control values.

[2] = test system: T98G human glioblastoma cells; experiment: MTT cytotoxicity assay, T98G cells; format: cell-based; conditions: for IC50: Homo sapiens, T98G, MTT, 72 h; for anticancer activity against T98G cells: at 100 µM concentration
Description: as §1, §2

[3] = test system: U87 human glioblastoma cells; experiment: MTT cytotoxicity assay, U87 cells; format: cell-based; conditions: for IC50: Homo sapiens, U-87 MG, MTT, 72 h; for anticancer activity against U87 cells: at 100 µM concentration
Description: as §1, §2

[4] = test system: Jurkat human leukemic T-cells; experiment: MTT cytotoxicity assay, Jurkat cells; format: cell-based; conditions: for IC50: Homo sapiens, Jurkat, MTT, 72 h; for SI (selectivity index): SI = IC50 for PBMCs/IC50 for Jurkat cells
Description: as §1, §2

[5] = test system: human peripheral blood mononuclear cells (PBMCs); experiment: MTT cytotoxicity assay, PBMCs; format: cell-based; conditions: Homo sapiens, PBMC, 72 h
Description: as §1, §2

Row | Compound | IC50 [1] [µM] | IC50 [2] [µM] | IC50 [3] [µM] | anticancer activity against U251 cells [1] | anticancer activity against T98G cells [2] | anticancer activity against U87 cells [3] | IC50 [4] [µM] | SI (selectivity index) [4] | IC50 [5] [µM] | melting point [°C]
1 | C[C@H]1[C@H](C)CC[C@]2(C(=O)OCc3ccccc3)CC[C@]3(C)C(=CC[C@@H]4[C@@]5(C)C[C@@H](O)[C@H](O)[C@@](C)(CO)[C@@H]5CC[C@]43C)[C@H]12 [Compound 1] | 13.2 ± 3.19 | 20.5 ± 4.34 | 22.6 ± 6.75 | – | – | – | – | – | – | –
2 | C=C(C)[C@@H]1CC[C@]2(C(=O)OCc3ccccc3)CC[C@]3(C)[C@H](CC[C@@H]4[C@@]5(C)CC[C@H](O)C(C)(C)[C@@H]5CC[C@]43C)[C@@H]12 [Compound 2] | 24 ± 4.98 | > 100 | > 100 | – | – | – | – | – | – | –
3 | CC1(C)[C@@H](O)CC[C@]2(C)[C@H]3C(=O)C=C4[C@@H]5C[C@@](C)(C(=O)OCc6ccccc6)CC[C@]5(C)CC[C@@]4(C)[C@]3(C)CC[C@@H]12 [Compound 3] | > 100 | > 100 | > 100 | no significant anticancer activity | no significant anticancer activity | no significant anticancer activity | – | – | – | –
4 | CC1(C)CC[C@]2(C(=O)OCc3ccccc3)CC[C@]3(C)C(=CC[C@@H]4[C@@]5(C)CC[C@H](O)[C@@](C)(CO)[C@@H]5CC[C@]43C)[C@@H]2C1 [Compound 4] | 8.06 ± 2.04 | 9.86 ± 2.21 | 19.5 ± 4.52 | – | – | – | 9.97 ± 3.24 | 2.20 | 21.9 ± 5.13 | –
5 | C[C@H]1[C@H](C)CC[C@]2(C(=O)OCc3ccccc3)CC[C@]3(C)C(=CC[C@@H]4[C@@]5(C)CC[C@H](O)C(C)(C)[C@@H]5CC[C@]43C)[C@H]12 [Compound 6] | 16.7 ± 3.17 | 64.1 ± 7.36 | 79.7 ± 10.1 | – | – | – | – | – | – | –
6 | CC1(C)CC[C@]2(C(=O)OCc3ccccc3)CC[C@]3(C)C(=CC[C@@H]4[C@@]5(C)CC[C@H](O)[C@@](C)(C=O)[C@@H]5CC[C@]43C)[C@@H]2C1 [Compound 7] | 18 ± 2.23 | 61.1 ± 5.13 | 60.9 ± 8.87 | – | – | – | – | – | – | –
7 | CC1(C)CCC2(C(=O)O)CCC3(C)C(=CCC4C5(C)CCC(O)C(C)(CNCc6ccccc6)C5CCC43C)C2C1 (stereo not drawn) [Compound 11, 9-((Benzylamino)methyl)-10-hydroxy-2,2,6a,6b,9,12a-hexamethyl-1,2,3,4,4a,5,6,6a,6b,7,8,8a,9,10,11,12,12a,12b,13,14b-icosahydropicene-4a-carboxylic acid] | > 100 | > 100 | > 100 | no significant anticancer activity | no significant anticancer activity | no significant anticancer activity | – | – | – | 246 to 249
8 | C[C@H](NCC1(C)C(O)CCC2(C)C1CCC1(C)C2CC=C2C3CC(C)(C)CCC3(C(=O)O)CCC21C)c1ccccc1 (stereo partly drawn) [Compound 12, 10-Hydroxy-2,2,6a,6b,9,12a-hexamethyl-9-[(((S)-1-phenylethyl)amino)methyl]-1,2,3,4,4a,5,6,6a,6b,7,8,8a,9,10,11,12,12a,12b,13,14b-icosahydropicene-4a-carboxylic acid] | > 100 | > 100 | > 100 | no significant anticancer activity | no significant anticancer activity | no significant anticancer activity | – | – | – | 240 to 243
9 | CC(=O)Nc1cccc(NCC2(C)C(O)CCC3(C)C2CCC2(C)C3CC=C3C4CC(C)(C)CCC4(C(=O)O)CCC32C)c1 (stereo not drawn) [Compound 13, 9-[((3-Acetamidophenyl)amino)methyl]-10-hydroxy-2,2,6a,6b,9,12a-hexamethyl-1,2,3,4,4a,5,6,6a,6b,7,8,8a,9,10,11,12,12a,12b,13,14b-icosahydropicene-4a-carboxylic acid] | 9.95 ± 2.04 | 20.2 ± 5.47 | 21.7 ± 6.09 | – | – | – | 12.1 ± 1.64 | 3.57 | 43.1 ± 8.32 | 265 to 267
